The values below are quoted from earlier work in US20110168623A1, “FEED SIDE PASSAGE MATERIAL AND SPIRAL SEPARATION MEMBRANE ELEMENT” (priority 2008, published 2011).

Series [1] relates to Pseudomonas aeruginosa.
The subject of series [2] is Aspergillus niger.
Series [3] deals with Candida yeast.

Take `Oc1cc(Cl)ccc1Oc1ccc(Cl)cc1Cl` [triclosan, 2,4,4′-trichloro-2′-hydroxy diphenyl ether]: the “antibacterial effect on Pseudomonas aeruginosa” value in series [1] is reported as “small or comparatively small antibacterial effect”. Moreover, the “antibacterial effect on Aspergillus niger” value in series [2] is “small or comparatively small antibacterial effect”. In addition, the “antibacterial effect on Candida yeast” value in series [3] is “small or comparatively small antibacterial effect”.
